Source: patent US5252589A, “Benzocycloheptene derivative and process for preparation thereof” (Tanabe Seikayu Co., Ltd., priority 1992, dated 1993)
Values joined by “and” are separate entries in the source; they are usually repeats but may differ in a detail not shown here. Identical values can stand only once.

Legend:
urinary bladder = test: Inhibitory effect on urinary bladder contractions (carbachol-induced, isolated rat urinary bladder); settings: Tyrode solution 37° C., contraction by 1×10^-5 M carbachol, compound added 5 minutes before carbachol, read-out: IC50, concentration of the test compound required to induce 50% inhibition of the pressure
Experimental: (Inhibitory effect on urinary bladder contractions)
Rats (body weight: 250 to 450 g) were used as the test animals. […] Urinary bladder was filled with 0.8 ml of a physiological saline solution. An ureteral catheter was inserted into the urinary bladder and one end of the catheter was connected to a pressure transducer. The change in intravesical pressure of the bladder was recorded. Contraction was induced by adding 1×10^-5 M carbachol at 30 minutes intervals. After the contraction became stable, the test compound was added to the Tyrode solution 5 minutes before the addition of carbachol.

[1] = Acute oral toxicity in mice; assay type: in vivo; settings: 500 mg/kg
Experimental: For example, when (±)-cis-5-(2-thienyl)-7-isopropylamino-6,7,8,9-tetrahydro-5H-benzocyclohepten-5-ol was orally administered to mice at a dose of 500 mg/kg, no mouse died two days after the administration thereof.

| Compound | IC50 (urinary bladder) | mortality two days after oral administration [1] |
| --- | --- | --- |
| O[C@@]1(c2cccs2)C[C@@H](N2CCCCC2)CCc2ccccc21 (racemic) [(±)-cis-5-(2-thienyl)-7-(1-piperidinyl)-6,7,8,9-tetrahydro-5H-benzocyclohepten-5-ol] | 700 nM |  |
| CCN(CC)[C@H]1CCc2ccccc2[C@](O)(c2cccs2)C1 (racemic) [(±)-cis-5-(2-thienyl)-7-diethylamino-6,7,8,9-tetrahydro-5H-benzocyclohepten-5-ol] | 1100 nM |  |
| (±)-cis-5-(2-thienyl)-7-isopropylamino-6,7,8,9-tetrahydro-5H-benzocyclohepten-5-ol | 2600 nM and 2200 nM | no mouse died |
